Data on 18 compounds can be found in paper PMC6274251, “Design, Synthesis and Biological Evaluation of Stilbene Derivatives as Novel Inhibitors of Protein Tyrosine Phosphatase 1B” (Molecules, 2016).

One test addresses T1, GST-PTP1B (Homo sapiens, UniProt P18031).
T1 sequence (P18031 1-435): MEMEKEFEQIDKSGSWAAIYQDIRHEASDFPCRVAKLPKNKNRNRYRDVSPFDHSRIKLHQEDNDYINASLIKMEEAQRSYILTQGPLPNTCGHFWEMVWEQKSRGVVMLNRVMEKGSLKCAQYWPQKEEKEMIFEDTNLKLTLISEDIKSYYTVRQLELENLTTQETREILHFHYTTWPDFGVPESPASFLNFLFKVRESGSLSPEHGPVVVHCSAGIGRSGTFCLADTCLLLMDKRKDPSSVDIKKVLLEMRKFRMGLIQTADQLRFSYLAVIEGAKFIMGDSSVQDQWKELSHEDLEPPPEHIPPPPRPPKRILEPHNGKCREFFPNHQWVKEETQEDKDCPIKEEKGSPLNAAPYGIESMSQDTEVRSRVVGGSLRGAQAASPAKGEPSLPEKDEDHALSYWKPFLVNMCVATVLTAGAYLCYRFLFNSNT
The experiment in a line: Colorimetric pNPP assay of inhibition against PTP1B.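 On all read-outs here: colorimetric inhibition readout run in 96-well plates, with PTP1B and TCPTP both tested in the same assay format.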 It counts as biochemical. The settings on record: for IC50: means ± SD of three replications, pNPP substrate, pH 6.5, 30 °C; for TCPTP/PTP1B, the ratio of IC50 of TCPTP and PTP1B: selectivity over TCPTP.

A further test concerns the target T2, GST-TCPTP (Homo sapiens, UniProt P17706).
T2 sequence (P17706 1-415): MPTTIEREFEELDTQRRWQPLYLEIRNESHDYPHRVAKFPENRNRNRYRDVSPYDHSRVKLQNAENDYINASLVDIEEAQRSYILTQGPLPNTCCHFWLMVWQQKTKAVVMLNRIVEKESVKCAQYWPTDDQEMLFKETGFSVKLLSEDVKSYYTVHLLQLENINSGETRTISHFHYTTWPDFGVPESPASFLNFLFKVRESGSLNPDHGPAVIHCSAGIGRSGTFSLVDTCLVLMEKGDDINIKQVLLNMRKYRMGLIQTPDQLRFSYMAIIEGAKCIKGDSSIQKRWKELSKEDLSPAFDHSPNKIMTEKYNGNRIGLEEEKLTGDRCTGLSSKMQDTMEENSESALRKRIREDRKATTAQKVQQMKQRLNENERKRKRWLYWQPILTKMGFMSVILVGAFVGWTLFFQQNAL
The experiment in a line: Colorimetric pNPP assay of inhibition against TCPTP.

Another test deals with T3, PTP1B (Homo sapiens, UniProt P18031).
T3 sequence (P18031 1-435): T1 sequence (P18031 1-435)
In words: PTP1B enzyme kinetic study (Michaelis-Menten, Lineweaver-Burk plot). It is filed as biochemical.

Setting [1] is: read-out: IC50 against PTP1B (Table 1).

Each structure is given as a SMILES string. Entries after “also recorded” stand apart in the source; their conditions may differ. Where two headings read alike, the source gives them in different places. Where only a bound is given, the exact number is not on record here.

Method for GST-PTP1B: (§1) A colorimetric assay to measure inhibition against PTP1B and TCPTP was performed in 96-well plates. […] Briefly, the tested compounds were solubilized in DMSO and serially diluted into concentrations for the inhibitory test.
Method for GST-TCPTP: as §1

A word on the IC50: it is the concentration at which inhibition is half-maximal. On to `O=C(O)c1cccc(/C=C/c2ccc(OCc3conc3-c3ccccc3)cc2)c1` [Compound 15, (E)-3-(4-((3-Phenylisoxazol-4-yl)methoxy)styryl)benzoic Acid], for which the IC50 on GST-PTP1B (setting [1]) was found to be 20.7 ± 3.83 µM.

For `O=C(O)c1cccc(/C=C/c2ccc(OCc3cnoc3-c3ccccc3)cc2)c1` [Compound 16, (E)-3-(4-((5-Phenylisoxazol-4-yl)methoxy)styryl)benzoic acid], the IC50 at GST-PTP1B (setting [1]) is 16.2 ± 4.52 µM.

For the compound `Cc1onc(-c2ccccc2)c1COc1ccc(/C=C/c2cccc(C(=O)O)c2)cc1` [Compound 17, (E)-3-(4-((5-Methyl-3-phenylisoxazol-4-yl)methoxy)styryl)benzoic acid], the IC50 at GST-PTP1B (setting [1]) is 15.7 ± 2.15 µM.

Regarding `O=C(O)c1cccc(/C=C/c2ccc(OCc3cc(-c4ccccc4)on3)cc2)c1` [Compound 18, (E)-3-(4-((5-Phenylisoxazol-3-yl)methoxy)styryl)benzoic acid], the results for the IC50 on GST-TCPTP and on GST-PTP1B (setting [1]) were 9.58 ± 0.33 µM and 6.33 ± 1.02 µM, respectively. Further, on GST-PTP1B, the “TCPTP/PTP1B, the ratio of IC50 of TCPTP and PTP1B” value (shortened to “TCPTP/PTP1B, the ratio”) is given as 1.5.

With `COC(=O)c1cccc(/C=C/c2ccc(OCc3cc(-c4ccccc4)on3)cc2)c1` [Compound 18d], the IC50 on GST-PTP1B (setting [1]) came to 23.7 ± 3.62 µM.

As to `O=C(O)c1cccc(/C=C/c2ccc(OCc3cc(-c4ccccc4Cl)on3)cc2)c1` [Compound 19, (E)-3-(4-((5-(2-Chlorophenyl)isoxazol-3-yl)methoxy)styryl)benzoic acid], the IC50 on GST-TCPTP came out at 36.2 ± 3.82 µM; at GST-PTP1B (read-out: IC50 PTP1B (Table 2)), 1.75 ± 0.82 µM. In addition, the “TCPTP/PTP1B, the ratio” value on GST-PTP1B worked out at 20.7.

For `COc1ccccc1-c1cc(COc2ccc(/C=C/c3cccc(C(=O)O)c3)cc2)no1` [Compound 20, (E)-3-(4-((5-(2-Methoxyphenyl)isoxazol-3-yl)methoxy)styryl)benzoic acid], the IC50 is above 40 µM on GST-TCPTP and 7.66 ± 1.05 µM at GST-PTP1B (read-out: IC50 PTP1B (Table 2)).

Consider `O=C(O)c1cccc(/C=C/c2ccc(OCc3cc(-c4cccc(Cl)c4)on3)cc2)c1` [Compound 21, (E)-3-(4-((5-(3-Chlorophenyl)isoxazol-3-yl)methoxy)styryl)benzoic acid], for which the IC50 was 7.58 ± 1.32 µM at GST-TCPTP and 5.37 ± 1.53 µM at GST-PTP1B (read-out: IC50 PTP1B (Table 2)). Further, the “TCPTP/PTP1B, the ratio” value at GST-PTP1B is 1.4.

On to `O=C(O)c1cccc(/C=C/c2ccc(OCc3cc(-c4cccc(F)c4)on3)cc2)c1` [Compound 22, (E)-3-(4-((5-(3-Fluorophenyl)isoxazol-3-yl)methoxy)styryl)benzoic acid], for which the IC50 is above 40 µM at GST-TCPTP and above 20 µM on GST-PTP1B (read-out: IC50 PTP1B (Table 2)).

With `O=C(O)c1cccc(/C=C/c2ccc(OCc3cc(-c4cccc(Br)c4)on3)cc2)c1` [Compound 23, (E)-3-(4-((5-(3-Bromophenyl)isoxazol-3-yl)methoxy)styryl)benzoic acid], the values for the IC50 against GST-TCPTP and on GST-PTP1B (read-out: IC50 PTP1B (Table 2)) were above 40 µM and 9.85 ± 2.04 µM, respectively.

Consider `Cc1cccc(-c2cc(COc3ccc(/C=C/c4cccc(C(=O)O)c4)cc3)no2)c1` [Compound 24, (E)-3-(4-((5-(m-Tolyl)isoxazol-3-yl)methoxy)styryl)benzoic acid], for which the IC50 came to 18.9 ± 1.18 µM on GST-TCPTP and 3.68 ± 1.12 µM at GST-PTP1B (read-out: IC50 PTP1B (Table 2)). The “TCPTP/PTP1B, the ratio” value at GST-PTP1B is 5.1.

Regarding `O=C(O)c1cccc(/C=C/c2ccc(OCc3cc(-c4cccc([N+](=O)[O-])c4)on3)cc2)c1` [Compound 25, (E)-3-(4-((5-(3-Nitrophenyl)isoxazol-3-yl)methoxy)styryl)benzoic acid], the IC50 is 13.2 ± 1.7 µM at GST-TCPTP and 2.05 ± 0.54 µM at GST-PTP1B (read-out: IC50 PTP1B (Table 2)). Also, at GST-PTP1B (relative to compound 18), the “PTP1B inhibitory activity, fold higher than compound 18” value is given as 3 fold. Moreover, the “TCPTP/PTP1B, the ratio” value on GST-PTP1B was 6.5.

Turning to `Cc1ccc(-c2cc(COc3ccc(/C=C/c4cccc(C(=O)O)c4)cc3)no2)cc1` [Compound 26, (E)-3-(4-((5-(p-Tolyl)isoxazol-3-yl)methoxy)styryl)benzoic acid], the IC50 on GST-TCPTP amounted to 7.67 ± 0.35 µM; at GST-PTP1B (read-out: IC50 PTP1B (Table 2)), 3.56 ± 0.28 µM. Moreover, the “TCPTP/PTP1B, the ratio” value on GST-PTP1B is on record as 2.2.

With `COc1ccc(-c2cc(COc3ccc(/C=C/c4cccc(C(=O)O)c4)cc3)no2)cc1` [Compound 27, (E)-3-(4-((5-(4-Methoxyphenyl)isoxazol-3-yl)methoxy)styryl)benzoic acid], the results for the IC50 against GST-TCPTP and at GST-PTP1B (read-out: IC50 PTP1B (Table 2)) were 8.02 ± 0.99 µM and 2.23 ± 0.51 µM, respectively. Also, the “TCPTP/PTP1B, the ratio” value at GST-PTP1B amounted to 3.6.

Regarding `O=C(O)c1cccc(/C=C/c2ccc(OCc3cc(-c4ccc(F)cc4)on3)cc2)c1` [Compound 28, (E)-3-(4-((5-(4-Fluorophenyl)isoxazol-3-yl)methoxy)styryl)benzoic acid], the values for the IC50 against GST-TCPTP and on GST-PTP1B (read-out: IC50 PTP1B (Table 2)) were 5.19 ± 0.31 µM and 3.34 ± 0.81 µM, respectively. Moreover, the “TCPTP/PTP1B, the ratio” value at GST-PTP1B stood at 1.6.

A word on the Ki: it is the equilibrium dissociation constant of an inhibitor or competing ligand from its target. Take `O=C(O)c1cccc(/C=C/c2ccc(OCc3cc(-c4ccc(Cl)c(Cl)c4)on3)cc2)c1` [Compound 29, (E)-3-(4-((5-(3,4-Dichlorophenyl)isoxazol-3-yl)methoxy)styryl)benzoic acid]: the IC50 against GST-TCPTP came to 3.78 ± 0.22 µM; on GST-PTP1B (read-out: IC50 PTP1B (Table 2)), 0.91 ± 0.33 µM. For the same compound, the “TCPTP/PTP1B, the ratio” value on GST-PTP1B was found to be 4.2. On PTP1B (30 nM PTP1B, pNPP up to 80 mM, pH 6.5, read-out: inhibitory constant Ki), the Ki amounted to 0.78 µM. In addition, at PTP1B (Vmax constant, Km increased with compound concentration), the “mode of inhibition of PTP1B” value was “competitive PTP1B inhibitor; also recorded: competitive inhibition”.

As to `O=C(O)c1cccc(/C=C/c2ccc(OCc3cc(-c4ccc(F)c(F)c4)on3)cc2)c1` [Compound 30, (E)-3-(4-((5-(3,4-Difluorophenyl)isoxazol-3-yl)methoxy)styryl)benzoic acid], the IC50 against GST-TCPTP was found to be 6.02 ± 1.13 µM; at GST-PTP1B (read-out: IC50 PTP1B (Table 2)) it was 1.22 ± 0.48 µM. Moreover, the “TCPTP/PTP1B, the ratio” value on GST-PTP1B was 4.9.

Consider `C[C@H](CCC(=O)O)[C@H]1CC[C@H]2[C@@H]3CC[C@@H]4C[C@H](O)CC[C@]4(C)[C@H]3CC[C@]12C` [Lithocholic acid, lithocholic acid, reference compound], for which the IC50 at GST-TCPTP came out at 20.9 ± 3.66 µM; on GST-PTP1B (read-out: IC50 PTP1B (Table 2)) it was 12.5 ± 2.51 µM. Also, at GST-PTP1B, the “TCPTP/PTP1B, the ratio” value was found to be 1.7.
